The test system of assay [1] is urinary bladder strips from rats. Put plainly: EFS-induced contractions of rat urinary bladder strips (Example 2). It is filed as cell-based. Conditions: for EC50: EFS-induced contractions, read-out: EC50 for inhibiting bladder contraction. On the procedure:
In order to investigate a possible pharmacological synergy on the combination of the muscarinic and the beta receptor pathways, the combination of the muscarinic antagonist oxybutynin and the beta-3 adrenoceptor agonist CL-316,243 (a very selective and potent rodent β3-AR agonist) was tested on EFS (electrical field stimulation)-induced responses in urinary bladder strips from rats.
Longitudinal strips of rat detrusor muscle were suspended in organ bath chambers containing oxygenated Krebs solution (pH 7.4, gassed with 95% O2 and 5% CO2 at 37° C.). Prazosin (1 μM) was added to the Krebs solution in order to block al-adrenoceptors. Bladder responses were measured using isometric transducers and recorded using a data acquisition system. Tissues were allowed to equilibrate under a resting tension of 1.0 g for 60 min. Following the equilibration period, strips were exposed to KCl (80 mM) to measure their viability. Tissues were washed and equilibrated for another 45 min period. Bladder strips were then subjected to EFS using the following parameters: maximal current 800 mA, frequency of 15 Hz, square pulse of 0.1 ms, trains of 4 s every 2 min. After approximately 15 min (when EFS contractions had stabilized), the selective β2-adrenoceptor antagonist ICI-118551 (30 nM) was incubated for 15 min. After stabilization of the contractile response, a concentration response curve was obtained for each bladder strip by adding CL-316,243 or oxybutynin (1 nM to 10 μM) (or corresponding vehicle) in log unit concentration increments.
In a second series of experiments, a single concentration of oxybutynin at 10 nM (determined from the first series of experiments) was added to organ bath chambers followed by various doses of CL-316,243 to provide a concentration-response curve for CL-316,243.

The test system of assay [2] is isolated rat urinary bladder strips. Put plainly: EFS-induced contractions of rat isolated urinary bladder strips, beta-3 agonist with or without 10 nM antimuscarinic (Example 3). The format is cell-based. On the procedure: In this study various combinations of β3-adrenoceptor agonists and antimuscarinics were tested in isolated rat urinary bladder strips. Urinary bladder smooth muscle strips were obtained from female rats (Sprague-Dawley strain, body weight 240-360 g). Two strips per bladder were prepared and connected to tension transducers in 5 ml organ baths containing Krebs-Henseleit solution (kept at 37° C., pH 7.4, gassed with 95% O2/5% CO2). Prazosin (1 μM) was added to the Krebs solution in order to block al-adrenoceptors. Strips were equilibrated for at least 60 min at 1.0 g resting tension, during which tissues were washed every 15 min. Then, each strip was exposed to 80 mM KCl to verify its viability. After another 45 min wash-out period, strips were subjected to EFS (electrical field stimulation parameters: constant current 800 mA; frequency of 15 Hz; square pulse of 0.1 ms, train of 4 s every 2 min). […] Cumulative concentrations of solabegron (10 nM-10 μM), mirabegron (10 nM-10 μM) and CL-316,243 (1 nM-10 μM) were then added in half-log increments. At the end of CRC's, 10 μM forskolin (FSK) was added to determine maximal relaxation (FIG. 1). […] Each CRC was fit using non-linear regression (GraphPad Prism® software) to obtain Emax and pIC50 (−log IC50) values. Mean CRCs for vehicle and treated strips were fit in parallel and statistically compared. The first fit was used to compare Emax values and when these values were not statistically different, a second fit was performed, sharing Emax, in order to obtain pIC50 values for each pair of curves. Differences were considered statistically significant when the null hypothesis could be rejected at a risk a of less than 0.05.

Assay [3] concerns muscarinic receptor subtypes M1, M2, M3, M4 and M5. As to conditions: cited from earlier work.
A short description of assay [4]: Drug interaction study, post void residual (PVR) volume by bladder ultrasound. The format is in vivo, human. The procedure: A drug interaction study was conducted in healthy human volunteers, using repeat oral doses of solabegron and oxybutynin administered singly as well as in combination with each other, in order to assess the effects on pharmacokinetic and pharmacodynamic parameters, as measured by post void residual (PVR) volumes. PVR was measured in subjects treated with each agent alone as well as in combination at steady-state. The study was a two-cohort randomized, open label, repeat dose, 3-way crossover study in healthy adult subjects. Two marketed formulations of oxybutynin were used in the study: i) Ditropan IR®, which is immediate release (IR) oxybutynin; and ii) Ditropan XL® which is extended release (XL) oxybutynin. The total daily dose given was 20 mg. Solabegron was administered as tablets. […] Each study session was separated by a washout period of at least 5 days. Safety assessments included vital signs, ambulatory blood pressure monitoring (ABPM) physical examinations, clinical laboratory safety tests, 12-lead ECGs, PVR volume, to assess the potential for urinary retention, and adverse events. […] Bladder ultrasound scans to measure PVR volumes were conducted on Day-1 (one day prior to the dosing period) and Day 6 (sixth day of the dosing period) of each study session.

Where [5] appears, read: in the presence of oxybutynin (10 nM).
Setting [6] is: in the presence of 10 nM oxybutynin.
[7] abbreviates: in the presence of 10 nM tolterodine.
Setting [8] is: in the presence of 10 nM solifenacin.

Like-named read-outs stand apart in the source and are kept apart here.

In general, EC50 refers to the concentration at which the effect is half-maximal. Take `C[C@H](Cc1ccc2c(c1)OC(C(=O)[O-])(C(=O)[O-])O2)NC[C@H](O)c1cccc(Cl)c1.[Na+].[Na+]` [CL-316,243]: in assay [1] (CL-316,243 alone), the “Maximal inhibition of EFS-induced contractions” value amounted to 65% and the EC50 was 7.2 nM. Further, the “Shift to the left of concentration-response curve” value in assay [1] (in the presence of a minimally effective dose of oxybutynin (10 nM)) is approximately 3.5 fold. In addition, in assay [1] (setting [5]), the “Maximal inhibition of EFS-induced contractions” value was 80% and the EC50 was determined as 2.1 nM. In assay [2] (setting [6]), the “Emax of beta-3 agonist vs vehicle (in words)” value (“Emax … vs vehicle (in words)” for short) was “significantly increased” and the “IC50 of beta-3 agonist vs vehicle (in words)” value (“IC50 … vs vehicle (in words)” below) was “significantly decreased”. In addition, in assay [2] (setting [7]), the “Emax … vs vehicle (in words)” value is “significantly increased”.
For the compound `Nc1nc(CC(=O)Nc2ccc(CCNC[C@H](O)c3ccccc3)cc2)cs1` [mirabegron], the “IC50 … vs vehicle (in words)” value in assay [2] (setting [6]), in assay [2] (setting [8]) and in assay [2] (setting [7]) was “significantly lower” in each case. Further, in assay [2] (setting [7]), the “Emax … vs vehicle (in words)” value is listed as “appeared to be increased”.
Turning to `CCN(CC)CC#CCOC(=O)C(O)(c1ccccc1)C1CCCCC1` (stereo not shown) [oxybutynin, 4-diethylaminobut-2-ynyl 2-cyclohexyl-2-hydroxy-2-phenyl-ethanoate], the “Effect of oxybutynin alone on EFS-induced responses (in words)” value in assay [1] (oxybutynin at a concentration of 10 nM, first series of experiments) is listed as “minimal contraction”. For the same compound, in assay [3], the “Discrimination between M3 and M1/M4 subtypes (in words)” value is “do not distinguish”; the “Selectivity for M3 over the M2/M5 subtypes” value was approximately 10 fold.
Take `O=C(O)c1cccc(-c2cccc(NCCNC[C@H](O)c3cccc(Cl)c3)c2)c1` [solabegron, 3′-[(2-{[(2R)-2-(3-chlorophenyl)-2-hydroxyethyl]amino}ethyl)amino]biphenyl-3-carboxylic acid]: in assay [4] (healthy human subjects, repeat oral doses for 5 days, Day 6 vs Day-1, solabegron 200 mg BID, oxybutynin IR 5 mg QID, oxybutynin XL 10 mg BID), the “Mean increase from baseline in PVR volume” value is given as 4.4 mL. Moreover, the “Changes in PVR volume (in words)” value in assay [4] (healthy subjects) is “minimal changes”. Also, the “Emax … vs vehicle (in words)” value in assay [2] (setting [6]), in assay [2] (setting [8]) and in assay [2] (setting [7]) was “significantly increased” each time. Moreover, the “IC50 … vs vehicle (in words)” value in assay [2] (setting [6]) and in assay [2] (setting [7]) was “significantly lower” in each case.
Turning to `O=C(O[C@H]1CN2CCC1CC2)N1CCc2ccccc2[C@@H]1c1ccccc1` [solifenacin], in assay [3], the “Discrimination between M3 and M1/M4 subtypes (in words)” value is recorded as “do not distinguish”; the “Selectivity for M3 over the M2/M5 subtypes” value is approximately 10 fold.
`Cc1ccc(O)c([C@H](CCN(C(C)C)C(C)C)c2ccccc2)c1` [tolterodine]: the “Discrimination between the five muscarinic subtypes (in words)” value in assay [3] is recorded as “does not discriminate between the five subtypes”.

The values above are taken from patent US10668034B2, “Pharmaceutical compositions and the treatment of overactive bladder” (Velicept Therapeutics, Inc., priority 2010, dated 2020).
